# Reference: US11506670B2, “Method of genome-wide direct identification of electrophile-sensing targets” (Cornell University, priority 2018, dated 2022)
# Several values for one entry are separate records, joined by “and”; a condition that tells them apart may be missing. Identical values can stand only once.
# Molecular target: Ube2V2 (Homo sapiens, UniProt Q15819)
# Assay: T-REX targeted delivery efficiency, in-gel fluorescence (Cy5 Click)
# Format: cell-based
# Set-up: the gene of interest (GOI) was PCR-amplified out from the original plasmid; expressed in transfected cells; host or cells: HEK 293T
# Settings: HEK293T, Halo-Ube2V2
# Experimental: HEK 293T cells were maintained in 1×MEM+ Glutamax™ media supplemented with 10% FBS, 1×NEAA, 1× sodium pyruvate and 1× Pen-Strep. Cells were grown in a humidified, 5% CO2 incubator at 37° C. For in-gel fluorescence analysis and western blot, ˜0.7-0.8×10^6 HEK 293T cells were seeded in 8 cm^2 tissue culture dishes. 24 h later, cells were transfected using TransIT-2020 transfection reagent per the manufacturer's recommendation. Subsequent steps were performed under dim light. 24-36 h post transfection, monolayer of cells were treated with 25 μM Ht-PreHNE in serum-free media and incubated for 2.5 h. Cells were gently rinsed with serum-free media three times every 30 min over the next 1.5 h. Meanwhile, UV lamps were turned on 10 min prior to UV irradiation time. For samples designated for light exposure, lids were removed from the dishes and cells were placed under 365 nm UV light for 5-8 min. The cells were harvested, washed two times with ice-cold PBS and frozen in liquid nitrogen.
# All steps were performed in dark or under dim light. Cells from 8 cm^2 plates were lysed in 30 μL buffer containing 50 mM HEPES (pH 7.6), 150 mM NaCl, 1% Nonidet P-40, 1× Roche cOmplete, mini, EDTA-free protease inhibitor cocktail, and 0.3 mM TCEP by rapid freeze-thaw (×3). […] Protein concentration of the clarified lysate was determined using Bradford assay. […]
# Sequence of Ube2V2 (Q15819 whole entry): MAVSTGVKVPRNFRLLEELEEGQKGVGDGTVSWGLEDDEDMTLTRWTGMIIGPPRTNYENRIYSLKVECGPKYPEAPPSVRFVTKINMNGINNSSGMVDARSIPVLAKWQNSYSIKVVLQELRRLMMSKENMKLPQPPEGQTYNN
smiles,measurement,value
"CCCCCC(O)/C=C/C=O (stereo not shown) [HNE, 4-hydroxynonenal]",T-REX targeted delivery efficiency,15±6% and 15%
